# From patent publication US20210308034A1, “PREBIOTIC COMPOSITIONS AND METHODS FOR MAINTAINING A HEALTHY SKIN MICROBIOTA” (KIMBERLY-CLARK WORLDWIDE, INC., priority 2018, published 2021)
# Legend:
# Type in all cases: cell-based
# [1] = tested on: Klebsiella pneumoniae (ATCC BAA-2146); conditions: Pathogenic; carbon microarray plate, OD 600 nm, 36 hr, 33° C.; positive = more than 0.05 OD units above zero; blank cell = not utilized
# [2] = tested on: Micrococcus luteus (ATCC 49732); experiment: Carbohydrate Screening Test Method (Biolog phenotype microarray), Bacteria Code D; conditions: Commensal; carbon microarray plate, OD 600 nm, 36 hr, 33° C.; positive = more than 0.05 OD units above zero; blank cell = not utilized
# Excerpt: (§1) After creating desired ratios of various commensal skin bacteria in a healthy skin microbiome, 188 different carbohydrate sources were screened as the next step in determining potential prospects for skin microbiota balancing agents. The screening process was set up to determine which carbohydrate sources promoted commensal and/or pathogenic bacteria as well as to obtain individual and combinations of carbohydrate sources that could serve as microbiota balancing agents that can support or maintain the healthy proportions of commensal skin bacteria of Corynebacterium, Staphylococcus, and Micrococcus. The screening was conducted utilizing Biolog phenotype microarray plates (Hayward, Calif.). Table 1 provides a coded list of the commensal and pathogenic skin bacteria that the carbohydrates were screened against.
# (§2) Table 2 provides the results of screening various carbohydrate sources against the commensal and pathogenic bacteria codes listed in Table 1. The Bacteria Codes B, D, E, I, and J are commensal bacteria and are shaded in Table 2 for references purposes. The bacteria codes were each placed in a carbon microarray plate and screened through the Carbohydrate Screening Test Method, as described in the Test Methods section herein. If a particular bacteria code utilized a specific carbohydrate source as described in the Carbohydrate Screening Test Method, then the corresponding cell in Table 2 was marked with a Y (short for “Yes”). […] Many of the carbohydrate sources were utilized by both commensal and pathogenic bacteria, and as such, would not provide an advantage for selective growth of the commensal bacteria. However, some of the carbohydrate sources were only used by commensal bacteria and were identified for further testing as described herein.
# (§3) The study employed 10 representative skin bacteria; Staphylococcus epidermidis ATCC 14990, Staphylococcus epidermidis M23864:W2, Staphylococcus aureus ATCC 6538, Staphylococcus aureus ATCC 25904 (Newman), Pseudomonas aeruginosa ATCC 9027, Micrococcus luteus ATCC […], Micrococcus luteus SK58, Klebsiella pneumoniae ATCC BAA-2146, Corynebacterium amycolatum SK46, and Corynebacterium minutissimum ATCC 23348. Cultures were started from freezer bead stocks by placing a single bead into 20 mL of tryptic soy broth (TSB) for all organisms except C. amycolatum SK46 and C. minutissimum ATCC 23348, which were placed into brain heart infusion (BHI) broth. Cultures were grown for about 24 hr at 37° C. except M. luteus ATCC 49732 and M. luteus SK58, which were grown at 30° C. A passage of the culture was made using a sterile swab and streaked onto two M9*2 agar plates to prepare the incubated culture for the phenotype microarray pate according to Table 4. Plates were incubated for about 24 hr at 37° C. except for M. luteus ATCC 49732 and M. luteus SK58, which were incubated at 30° C. for 24 hr.
# (§4) All cultures were harvested and washed before inoculation into the carbon microarray plate (BiOLOG, Hayward Calif.), with Biolog Plates PM1 and PM2 each having a source definition of Carbon. The bacteria on the M9*2 agar was suspended via agitation with an inoculating loop in 1 mL of M9*1 media for collection in a 1.7 mL micro centrifuge tube, as noted in Table 4. The bacteria was suspended again in M9*1 media, agitated, and collected into the same 1.7 mL microcentrifuge tube used in the previous step. The tube was centrifuged for 5 minutes at 4,000×G, supernatant decanted, the pellet was resuspended in 1 mL of M9*1 media, and vortex. This washing process was repeated for a total of 4 times.
# (§5) A tenfold dilution in M9*1 media was performed using 1 mL of the washed bacterial culture. Of the tenfold dilution 200 μL was placed in an untreated 96-well plate (Falcon, Pasadena Tx.) for an initial optical density (OD) reading at a wavelength of 600 nm. The OD was used to correlate to colony forming units (CFU) per milliliter by using linear regression lines for each organism. […]
# [3] = tested on: Pseudomonas aeruginosa (ATCC 9027); conditions: Pathogenic; carbon microarray plate, OD 600 nm, 36 hr, 33° C.; positive = more than 0.05 OD units above zero; blank cell = not utilized
# Summary of the method: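 Carbon-source utilisation screen on Biolog PM1/PM2 plates: strain grown in TSB then on M9*2 agar, each ~24 h at 37 °C, washed four times in M9*1 and diluted tenfold. OD600 correlated to CFU/mL; each carbohydrate scored Yes when utilised.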
# [4] = tested on: Staphylococcus epidermidis (M23864:W2); experiment: Carbohydrate Screening Test Method (Biolog phenotype microarray), Bacteria Code J; conditions: Commensal; carbon microarray plate, OD 600 nm, 36 hr, 33° C.; positive = more than 0.05 OD units above zero; blank cell = not utilized
# Excerpt: as §1
# The Bacteria Codes B, D, E, I, and J are commensal bacteria and are shaded in Table 2 for references purposes. The bacteria codes were each placed in a carbon microarray plate and screened through the Carbohydrate Screening Test Method, as described in the Test Methods section herein. If a particular bacteria code utilized a specific carbohydrate source as described in the Carbohydrate Screening Test Method, then the corresponding cell in Table 2 was marked with a Y (short for “Yes”).
# To do so, the respective microarray data for the 79 carbohydrate sources was run through the GrowthRates 2.1 program to obtain growth parameters, such as growth rates and maximum yield data as described by the Belingham Research Institute, Hall, B. G., H. Acar and M. Barlow. 2014 Growth Rates Made Easy. Mol. Biol. Evol. 31:232-238 doi:10.1093/molbev/mst197. The max yield parameters generated were utilized to calculate ratios of tested commensal bacteria. The ratios calculated were compared back to the desired ratios identified above (Corynebacterium to Staphylococcus of 1.3, Corynebacterium to Micrococcus of 1.4, and Staphylococcus to Micrococcus of 1.1).
# As an example of this methodology used to calculate the commensal bacteria ratios and the difference between the calculated ratios and the desired ratios, an example code from Table 3 will be described. […] The max yields were then used to calculate ratios the bacteria would reach in a co-culture.
# [5] = tested on: Staphylococcus epidermidis (ATCC 14990); experiment: Carbohydrate Screening Test Method (Biolog phenotype microarray), Bacteria Code I; conditions: Commensal; carbon microarray plate, OD 600 nm, 36 hr, 33° C.; positive = more than 0.05 OD units above zero; blank cell = not utilized
# Excerpt: as §1, §2, §3, §4, §5
# [6] = tested on: Corynebacterium jeikum (ATCC 33033); experiment: Carbohydrate Screening Test Method (Biolog phenotype microarray), Bacteria Code B; conditions: Commensal; carbon microarray plate, OD 600 nm, 36 hr, 33° C.; positive = more than 0.05 OD units above zero; blank cell = not utilized
# Summary of the method: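 Strain from M9*2 agar was suspended in M9*1 medium, washed and inoculated into Biolog PM1/PM2 carbon plates. Carbohydrate use was scored yes/no, and growth rate and maximum yield were derived with GrowthRates 2.1, with max yields used for commensal ratios.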
# [7] = tested on: Micrococcus luteus (SK58); experiment: Carbohydrate Screening Test Method (Biolog phenotype microarray), Bacteria Code E; conditions: Commensal; carbon microarray plate, OD 600 nm, 36 hr, 33° C.; positive = more than 0.05 OD units above zero; blank cell = not utilized
# Summary of the method: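 Each commensal strain grown in Biolog carbon phenotype microarray plates with single carbohydrate sources. Growth curves fitted with GrowthRates 2.1 to give growth rate and maximum yield. Max yields used to calculate predicted co-culture ratios between Corynebacterium, Staphylococcus and Micrococcus, compared with desired ratios of 1.3, 1.4 and 1.1.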
Compound,"Carbohydrate Screening Results, Bacteria Code D [2]","Carbohydrate Screening Results, Bacteria Code J [4]","Carbohydrate Screening Results, Bacteria Code I [5]",further results
OC[C@H]1O[C@H](OC[C@H]2O[C@H](OC[C@H]3O[C@H](O[C@]4(CO)O[C@H](CO)[C@@H](O)[C@@H]4O)[C@H](O)[C@@H](O)[C@@H]3O)[C@H](O)[C@@H](O)[C@H]2O)[C@H](O)[C@@H](O)[C@H]1O [Stachyose],Y,–,–,"Carbohydrate Screening Results, Bacteria Code C [1]: Y; Carbohydrate Screening Results, Bacteria Code F [3]: Y"
N#C[C@H](O[C@@H]1O[C@H](CO[C@@H]2O[C@H](CO)[C@@H](O)[C@H](O)[C@H]2O)[C@@H](O)[C@H](O)[C@H]1O)c1ccccc1 [Amygdalin],Y,Y,–,–
OC[C@@H](O)[C@@H](O[C@@H]1O[C@H](CO)[C@H](O)[C@H](O)[C@H]1O)[C@H](O)[C@@H](O)CO [Lactitol],–,Y,Y,"Carbohydrate Screening Results, Bacteria Code C [1]: Y"
O=C[C@@H](O)[C@H](O)[C@H](O)CO [D-Arabinose],Y,–,–,–
NCCCCN [Putrescine],–,Y,Y,"Carbohydrate Screening Results, Bacteria Code C [1]: Y"
Gelatin,Y,Y,–,–
C/C(=C/C(=O)O)C(=O)O [Citraconic Acid],Y,Y,Y,–
NC(=O)CCC(=O)O [Succinamic Acid],Y,–,Y,–
OC[C@H]1O[C@@H]2O[C@H]3[C@H](O)[C@@H](O)[C@@H](O[C@H]4[C@H](O)[C@@H](O)[C@@H](O[C@H]5[C@H](O)[C@@H](O)[C@@H](O[C@H]6[C@H](O)[C@@H](O)[C@@H](O[C@H]7[C@H](O)[C@@H](O)[C@@H](O[C@H]8[C@H](O)[C@@H](O)[C@@H](O[C@H]1[C@H](O)[C@H]2O)O[C@@H]8CO)O[C@@H]7CO)O[C@@H]6CO)O[C@@H]5CO)O[C@@H]4CO)O[C@@H]3CO [β-Cyclodextrin],Y,Y,Y,–
CC(=O)N[C@H]1C(O)O[C@H](CO)[C@H](O)[C@@H]1O (stereo partly drawn) [N-Acetyl-D-Galactosamine],Y,–,–,–
CC(=O)N[C@@H](CCC(=O)O)C(=O)O [N-Acetyl-L-Glutamic Acid],Y,–,–,"Carbohydrate Screening Results, Bacteria Code F [3]: Y"
C[C@H](N)C(N)=O [L-Alaninamide],Y,Y,–,–
NCCO [2-Aminoethanol],Y,–,–,"Carbohydrate Screening Results, Bacteria Code B [6]: Y; Carbohydrate Screening Results, Bacteria Code E [7]: Y"
Chondroitin Sulfate C,Y,–,–,–
O=C[C@H](O)[C@@H](O)[C@@H](O)[C@H](O)C(=O)O [D-Galacturonic Acid],Y,–,–,"Carbohydrate Screening Results, Bacteria Code B [6]: Y; Carbohydrate Screening Results, Bacteria Code E [7]: Y"
OC[C@H]1O[C@@](CO)(O[C@H]2O[C@H](CO)[C@@H](O)[C@H](O)[C@H]2O)[C@@H](O[C@H]2O[C@H](CO)[C@@H](O)[C@H](O)[C@H]2O)[C@@H]1O [D-Melezitose],Y,–,Y,–
O=C(O)C(=O)C(C(=O)O)C(O)C(=O)O (centres unmarked) [Oxalomalic Acid],Y,Y,–,–
O=c1ccn([C@@H]2O[C@H](CO)[C@@H](O)[C@H]2O)c(=O)[nH]1 [Uridine],Y,–,–,"Carbohydrate Screening Results, Bacteria Code B [6]: Y; Carbohydrate Screening Results, Bacteria Code C [1]: Y"
"O=C1O[C@H](CO)[C@@H](O)[C@H]1O [D-Ribono-1,4-Lactone]",Y,–,–,–
OCc1ccccc1O[C@@H]1O[C@H](CO)[C@@H](O)[C@H](O)[C@H]1O [Salicin],Y,–,–,"Carbohydrate Screening Results, Bacteria Code C [1]: Y; Carbohydrate Screening Results, Bacteria Code F [3]: Y"
N=C(N)NCCC[C@H](N)C(=O)O [L-Arginine],Y,–,–,"Carbohydrate Screening Results, Bacteria Code F [3]: Y"
O=C(CO)[C@@H](O)[C@H](O)[C@@H](O)CO [L-Sorbose],Y,–,–,"Carbohydrate Screening Results, Bacteria Code C [1]: Y; Carbohydrate Screening Results, Bacteria Code F [3]: Y"
COC1OC(CO)C(O)C(O)C1O [α-Methyl-D-Mannoside],Y,–,–,–
N[C@@H](CO)C(=O)O [L-Serine],–,Y,Y,"Carbohydrate Screening Results, Bacteria Code B [6]: Y; Carbohydrate Screening Results, Bacteria Code E [7]: Y"
OC[C@H]1O[C@@H](O[C@@H]2[C@@H](CO)OC(O)(CO)[C@H]2O)[C@H](O)[C@@H](O)[C@H]1O (mixture of isomers) [Lactulose],–,Y,Y,"Carbohydrate Screening Results, Bacteria Code B [6]: Y; Carbohydrate Screening Results, Bacteria Code E [7]: Y"
O=C(O)CC(=O)O [Malonic Acid],Y,–,–,"Carbohydrate Screening Results, Bacteria Code C [1]: Y; Carbohydrate Screening Results, Bacteria Code F [3]: Y"
O=C(O)c1ccc(O)cc1 [4-Hydroxy Benzoic Acid],Y,–,–,–
CC(C)C[C@H](N)C(=O)O [L-Leucine],Y,–,–,–
OC[C@H]1O[C@H](OC[C@H]2OC(O)(CO)[C@@H](O)[C@@H]2O)[C@H](O)[C@@H](O)[C@@H]1O (some centres unmarked) [Palatinose],–,Y,Y,"Carbohydrate Screening Results, Bacteria Code C [1]: Y; Carbohydrate Screening Results, Bacteria Code F [3]: Y"
